Test results taken from patent US20150261911A1, “CRYSTAL STRUCTURE” (Heptares Therapeutics Limited, priority 2014, published 2015).
Where a chain is given by its changes, count along the chain named. In names and notes the source's numbering stands. Entries after “also recorded” stand apart in the source; their conditions may differ.

T1: CRF1R F203A(3.44) (Homo sapiens, UniProt P34998, F203A)
T1 construct: expressed in transfected cells; host or cells: HEK293T, transient; whole cells solubilised in DDM
T1 sequence (P34998 with tags, fused parts or gaps F203A): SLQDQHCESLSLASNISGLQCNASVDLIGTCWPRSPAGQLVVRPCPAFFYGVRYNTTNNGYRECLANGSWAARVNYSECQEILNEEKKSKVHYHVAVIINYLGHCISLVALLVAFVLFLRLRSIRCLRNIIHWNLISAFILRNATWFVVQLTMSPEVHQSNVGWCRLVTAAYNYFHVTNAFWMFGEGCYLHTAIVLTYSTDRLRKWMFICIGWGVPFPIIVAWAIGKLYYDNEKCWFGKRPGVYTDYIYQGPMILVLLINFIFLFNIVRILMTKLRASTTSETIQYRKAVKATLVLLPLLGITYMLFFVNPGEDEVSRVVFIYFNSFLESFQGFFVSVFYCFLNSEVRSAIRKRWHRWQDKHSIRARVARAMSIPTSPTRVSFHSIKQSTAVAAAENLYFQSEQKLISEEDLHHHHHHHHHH

T2: CRF1R L280A(5.47) (Homo sapiens, UniProt P34998, L280A)
T2 construct: expressed in transfected cells; host or cells: HEK293T, transient; whole cells solubilised in DDM
T2 sequence (P34998 with tags, fused parts or gaps L280A): T1 sequence (P34998 with tags, fused parts or gaps F203A) with A180F, L257A

T3: CRF1R N283A(5.50) (Homo sapiens, UniProt P34998, N283A)
T3 construct: expressed in transfected cells; host or cells: HEK293T, transient; whole cells solubilised in DDM
T3 sequence (P34998 with tags, fused parts or gaps N283A): T1 sequence (P34998 with tags, fused parts or gaps F203A) with A180F, N260A

T4: CRF1R Q355A(7.49) (Homo sapiens, UniProt P34998, Q355A)
T4 construct: expressed in transfected cells; host or cells: HEK293T, transient; whole cells solubilised in DDM
T4 sequence (P34998 with tags, fused parts or gaps Q355A): T1 sequence (P34998 with tags, fused parts or gaps F203A) with A180F, Q332A

B1: CRF1R wild type: wild-type human corticotropin-releasing factor receptor 1 (FIG. 12, SEQ ID NO:18) (protein)
chain: MGGHPQLRLVKALLLLGLNPVSASLQDQHCESLSLASNISGLQCNASVDLIGTCWPRSPAGQLVVRPCPAFFYGVRYNTTNNGYRECLANGSWAARVNYSECQEILNEEKKSKVHYHVAVIINYLGHCISLVALLVAFVLFLRLRSIRCLRNIIHWNLISAFILRNATWFVVQLTMSPEVHQSNVGWCRLVTAAYNYFHVTNFFWMFGEGCYLHTAIVLTYSTDRLRKWMFICIGWGVPFPIIVAWAIGKLYYDNEKCWFGKRPGVYTDYIYQGPMILVLLINFIFLFNIVRILMTKLRASTTSETIQYRKAVKATLVLLPLLGITYMLFFVNPGEDEVSRVVFIYFNSFLESFQGFFVSVFYCFLNSEVRSAIRKRWHRWQDKHSIRARVARAMSIPTSPTRVSFHSIKQSTAVAAAENLYFQSEQKLISEEDLHHHHHHHHHH
B2: CRF1R StaR: thermostabilized CRF1R with 12 mutations: V120A, L144A, W156A, S160A, S222A, K228A, F260A, I277A, Y309A, F330A, S349A, Y363A (protein)
chain: MGGHPQLRLVKALLLLGLNPVSASLQDQHCESLSLASNISGLQCNASVDLIGTCWPRSPAGQLVVRPCPAFFYGVRYNTTNNGYRECLANGSWAARVNYSECQEILNEEKKSKVHYHVAAIINYLGHCISLVALLVAFVLFLRARSIRCLRNIIHANLIAAFILRNATWFVVQLTMSPEVHQSNVGWCRLVTAAYNYFHVTNFFWMFGEGCYLHTAIVLTYATDRLRAWMFICIGWGVPFPIIVAWAIGKLYYDNEKCWAGKRPGVYTDYIYQGPMALVLLINFIFLFNIVRILMTKLRASTTSETIQARKAVKATLVLLPLLGITYMLAFVNPGEDEVSRVVFIYFNAFLESFQGFFVSVFACFLNSEVRSAIRKRWHRWQDKHSIRARVARAMSIPTSPTRVSFHSIKQSTAVAAAENLYFQSEQKLISEEDLHHHHHHHHHH
modifications: C-terminal tag

Key:
CRF1R F203A(3.44) = target: T1, CRF1R F203A(3.44); assay: Solubilised whole cell ligand binding, alanine mutagenesis; settings: Phe203^3.44Ala
Protocol: (§1) HEK293T cells transiently transfected with CRF1R constructs were incubated in buffer (50mMTris-HCl pH 7.5, 150mMNaCl, EDTA-free protease inhibitors) with 30 nM [^3H]CP-376395, and 120 nM cold CP-376395 (Tocris) for 18 hours at room temperature. Reactions were transferred to ice and all subsequent steps performed at 4° C. Cells were solubilized in 1% (w/v) n-dodecyl-β-D-maltopyranoside (DDM, Affymetrix) for 1 hour and crude lysates cleared by centrifugation at 16.000×g for 15 minutes. Thermostability of the receptor was measured by incubation at varying temperatures for 30 minutes followed by separation of excess and unbound radioligand by gel filtration. Levels of ligand-bound receptor were then determined using a liquid scintillation counter.
(§2) For saturation binding experiments, membranes isolated from HEK293T cells transiently expressing wild-type CRF1R (15 μg/well), CRF1R StaR (6 μg/well), CRF1R StaR with T4L fusion (20 μg/well), and CRF1R-#105 (20 μg/well) were incubated in buffer (50mMTris-HCl pH 7.5, 150 mM NaCl, 0.1% (w/v) PEI, EDTA-free protease inhibitors) with [^3H]CP-376395 (0-60 nM) in the presence or absence of 30 uM cold CP-376395 in a final volume of 500 μl. Final DMSO concentration in each reaction was 5% (v/v). Membranes were incubated for 18 hours at room temperature before being terminated by rapid filtration through 96-well GF/C UniFilter plates pre-soaked in 0.3% (w/v) PEI, followed by washing with PBS with 0.15% (w/v) CHAPS. Plates were dried, 50 μl Ultima Gold-F added per well and bound ligand measured using a Packard Microbeta counter. Data were analyzed using a global fitted one-site binding hyperbola in GraphPad Prism v5 to generate Kd. For solubilized whole cell ligand binding experiments, HEK293T cells transiently expressing eGFP-tagged wild-type CRF1R or single point mutants were treated as described above for thermostability experiments, without the 30 minute heating step. Specific binding was determined by subtracting untransfected controls. Expression of each construct was quantified by eGFP fluorescence of whole cells measured at Ex/Em of 488/520 nm.

CRF1R L280A(5.47) = target: T2, CRF1R L280A(5.47); assay: as above; settings: Leu280^5.47Ala
Protocol: as §1, §2

CRF1R N283A(5.50) = target: T3, CRF1R N283A(5.50); assay: as above; settings: Asn283^5.50Ala
Protocol: as §1, §2

CRF1R Q355A(7.49) = target: T4, CRF1R Q355A(7.49); assay: as above; settings: Gln355^7.49 substituted with alanine
Protocol: as §1, §2

[1] = Thermostability measurement of CRF1R constructs solubilised in DDM, read out by [3H]CP-376395 binding; assay type: physicochemical, human; settings: measured using [3H]CP-376395 binding, mean of four independent experiments, standard deviation in parentheses
Protocol: as §1

Row | Molecule | antagonist binding after mutation to alanine (CRF1R F203A(3.44)) | antagonist binding after mutation to alanine (CRF1R L280A(5.47)) | ligand binding after mutation to alanine (CRF1R N283A(5.50)) | CP-376395 binding after substitution with alanine (CRF1R Q355A(7.49)) | Mean Tm [1]
1 | CCC(CC)Nc1cc(C)nc(Oc2c(C)cc(C)cc2C)c1C [CP-376395] | negligible or no binding detected | negligible or no binding detected | complete loss of ligand binding; also recorded: negligible or no binding detected | did not affect | 
2 | B1 |  |  |  |  | 18.4 (2.0) ° C.
3 | B2 |  |  |  |  | 44.7 (2.2) ° C.
